Experimental findings from PubChem BioAssay (NCI) are described below.

The structures appear in SMILES notation.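 Growth conditions: 96-well plates. Treatment: test compound, 48 hours, 5 concentrations. Analysis: linear interpolation between bracketing concentrations; unreached endpoints set to highest concentration. Here, GI50 denotes the concentration required for 50% inhibition of growth. Definition used: TGI = concentration required for complete inhibition of growth.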 Where only a bound is given, the exact number is not on record here.

Among the test systems are OVCAR-8 ovarian; RXF 393 renal; SF-268 CNS; HOP-62 NSCLC; SK-MEL-28 melanoma; LOX IMVI melanoma; K-562 leukemia; SNB-19 CNS; U251 CNS; SW-620 colon; SF-295 CNS; KM12 colon; ACHN renal.
What all share (assay): NCI anticancer screen, dose series, 48 h

Take `CC(C)[C@](O)(C(=O)OCC1CC[N+]2([O-])CC[C@@H](O)C12)[C@H](C)O` (stereo partly specified): the TGI is more than 375 µM with OVCAR-8 ovarian; more than 375 µM with RXF 393 renal; more than 375 µM in the test with SF-268 CNS; more than 375 µM with HOP-62 NSCLC; more than 375 µM in the test on SK-MEL-28 melanoma; more than 203 µM in the test on LOX IMVI melanoma. The TGI in the test with K-562 leukemia, in the test with SNB-19 CNS, in the test with U251 CNS, with SW-620 colon, in the test with SF-295 CNS and in the test with KM12 colon was more than 375 µM in each case.
On to `Cc1ccc(S(=O)(=O)OC2C(C3COC(C)(C)O3)OC3OC(C)(C)OC32)cc1` (stereo unspecified), for which the TGI in the test with OVCAR-8 ovarian, in the test with RXF 393 renal, with SF-268 CNS, in the test on HOP-62 NSCLC, in the test with SK-MEL-28 melanoma and with ACHN renal was more than 100 µM in each case. For the same compound, the TGI with LOX IMVI melanoma, in the test on K-562 leukemia, with SNB-19 CNS, in the test with U251 CNS, in the test with SW-620 colon and with SF-295 CNS was more than 100 µM in each case. This compound also gave a TGI with KM12 colon of more than 100 µM.
On to `Cc1ccc(-c2csc(=Nc3c(C)n(C)n(-c4ccccc4)c3=O)n2CCO)cc1`, for which the TGI in the test on OVCAR-8 ovarian, with RXF 393 renal, with SF-268 CNS, in the test on HOP-62 NSCLC, in the test on SK-MEL-28 melanoma and with ACHN renal was more than 100 µM throughout. The TGI with K-562 leukemia, in the test with SNB-19 CNS, with U251 CNS, in the test on SF-295 CNS and in the test with KM12 colon was more than 100 µM in each case.
Take `CCCCN1C(=O)NC(Cc2ccccc2)C1=O` (stereo unspecified): the TGI with OVCAR-8 ovarian, in the test on RXF 393 renal, in the test with SF-268 CNS, in the test on HOP-62 NSCLC, in the test with SK-MEL-28 melanoma and in the test on ACHN renal was more than 100 µM in each case. In addition, the TGI in the test with LOX IMVI melanoma, in the test on SNB-19 CNS, in the test with U251 CNS, with SW-620 colon, with SF-295 CNS and in the test with KM12 colon was more than 100 µM each time.
Regarding `O=[n+]1c2ccccc2n([O-])c2cc(Br)ccc21`, the TGI is 47.9 µM in the test on OVCAR-8 ovarian; 41.1 µM with RXF 393 renal; 55.3 µM in the test with SF-268 CNS; more than 100 µM in the test with HOP-62 NSCLC; more than 100 µM with SK-MEL-28 melanoma; 17.4 µM with ACHN renal. In addition, the TGI in the test with LOX IMVI melanoma was 13.6 µM; in the test on K-562 leukemia it was 33.4 µM; in the test with SNB-19 CNS, more than 100 µM; in the test on U251 CNS, 78.8 µM; in the test on SW-620 colon, 75.7 µM; with SF-295 CNS, 46.4 µM. The same compound returned a TGI with KM12 colon of 30.9 µM.
Regarding `CC#C[I+]c1ccccc1`, the TGI in the test with OVCAR-8 ovarian worked out at 31.2 µM; in the test with RXF 393 renal it was 36.9 µM; in the test on SF-268 CNS it was 35.1 µM; in the test with HOP-62 NSCLC, 96.6 µM; with SK-MEL-28 melanoma it was 50.4 µM; in the test on ACHN renal it was 32 µM. Besides, the TGI is 28.2 µM with LOX IMVI melanoma; 33.3 µM with K-562 leukemia; more than 100 µM with SNB-19 CNS; 29.1 µM in the test with U251 CNS; more than 100 µM in the test on SF-295 CNS; 40.1 µM with KM12 colon.
Turning to `COc1ccc(N2C(=O)C3c4[nH]c5cccc(C)c5c4C4CCC(C(C)(C)C)CC4C3C2=O)cc1` (stereo unspecified), the TGI in the test with OVCAR-8 ovarian, in the test on RXF 393 renal, in the test with SF-268 CNS, in the test with HOP-62 NSCLC, in the test with SK-MEL-28 melanoma and in the test on ACHN renal was more than 10 µM in each case. The TGI in the test with LOX IMVI melanoma, in the test on K-562 leukemia, in the test with SNB-19 CNS, in the test on U251 CNS, in the test on SW-620 colon and in the test with SF-295 CNS was more than 10 µM in each case. For the same compound, the TGI with KM12 colon was more than 10 µM.
`COc1cc2c3c(n(CCCNCCCNCCCn4c5c(c6ccccc6c4=O)C(=O)c4ccccc4-5)c(=O)c2cc1OC)-c1cc2c(cc1C3=O)OCO2`: the GI50 with SF-268 CNS is less than 0.01 µM; with HOP-62 NSCLC it was less than 0.0434 µM; with ACHN renal, less than 0.01 µM; in the test with LOX IMVI melanoma, less than 0.01 µM; with K-562 leukemia it was 0.0403 µM; with U251 CNS, less than 0.01 µM. Also, the GI50 in the test with SW-620 colon is less than 0.01 µM. Also, the TGI is 0.0217 µM in the test on SF-268 CNS; 0.695 µM with HOP-62 NSCLC; less than 0.0219 µM in the test with ACHN renal; less than 0.0361 µM in the test on LOX IMVI melanoma; more than 100 µM with K-562 leukemia; 0.0205 µM with U251 CNS. In the test with SW-620 colon, this compound yielded a TGI of 0.197 µM.
In the case of `CC(=O)Oc1ccccc1C(=O)O`, the TGI in the test with OVCAR-8 ovarian, in the test with RXF 393 renal, with SF-268 CNS, with HOP-62 NSCLC, in the test with SK-MEL-28 melanoma and in the test with ACHN renal was more than 100 µM in each case. For the same compound, the TGI with LOX IMVI melanoma, in the test with K-562 leukemia, in the test with SNB-19 CNS, with U251 CNS, with SW-620 colon and in the test on SF-295 CNS was more than 100 µM each time. The TGI with KM12 colon is more than 100 µM.
Regarding `Clc1c(Cl)c2c(Cl)c(Cl)c1C[P+](c1ccccc1)(c1ccccc1)CC[P+](c1ccccc1)(c1ccccc1)Cc1c(Cl)c(Cl)c(c(Cl)c1Cl)C[P+](c1ccccc1)(c1ccccc1)CC[P+](c1ccccc1)(c1ccccc1)C2`, the TGI in the test on OVCAR-8 ovarian stood at 19 µM; with RXF 393 renal it was 10.9 µM; in the test with SF-268 CNS it was 12.6 µM; in the test with HOP-62 NSCLC it was 18.5 µM; with SK-MEL-28 melanoma it was 5.13 µM; with ACHN renal, 17.6 µM. In addition, the TGI in the test with LOX IMVI melanoma came out at 7.89 µM; in the test on K-562 leukemia, 9.17 µM; in the test with SNB-19 CNS it was 13.4 µM; in the test with U251 CNS it was 12.4 µM; in the test with SW-620 colon, 13.6 µM; with SF-295 CNS, 12.6 µM. The same compound yielded a TGI with KM12 colon of 6.12 µM.
Consider `Cn1c(-c2ccc(/C=N\N3CCN(/N=C/c4ccc(-c5c[n+]6ccsc6n5C)cc4)CC3)cc2)c[n+]2ccsc12`, for which the TGI with OVCAR-8 ovarian was more than 100 µM; with RXF 393 renal, more than 100 µM; with SF-268 CNS, more than 100 µM; in the test with ACHN renal, more than 100 µM; in the test on LOX IMVI melanoma, more than 100 µM; in the test with K-562 leukemia it was 34.7 µM. The TGI in the test with SNB-19 CNS, in the test on U251 CNS, with SW-620 colon, in the test on SF-295 CNS and in the test on KM12 colon was more than 100 µM in each case.
For `CCCCCCCCCCCCCCCCOCC(COP(=O)([O-])OCC[N+](C)(C)C)OCCCCCCCCCCCCCCCC` (stereo unspecified), the TGI with OVCAR-8 ovarian, in the test with RXF 393 renal, with SF-268 CNS, in the test on HOP-62 NSCLC, in the test with SK-MEL-28 melanoma and with LOX IMVI melanoma was more than 100 µM throughout. The TGI in the test with K-562 leukemia, with SNB-19 CNS, in the test with U251 CNS, in the test with SW-620 colon, in the test with SF-295 CNS and in the test with KM12 colon was more than 100 µM throughout.
With `CCO[C@]12C[C@H](OC)[C@@]3(O)CC(C1[C@H]3O)C13C4C2[C@H](OC)C1[C@](COC)(CN4CC)[C@H](O)C[C@@H]3OC` (stereo partly specified), the TGI in the test with OVCAR-8 ovarian, in the test on RXF 393 renal, in the test on SF-268 CNS, in the test on HOP-62 NSCLC, in the test on SK-MEL-28 melanoma and in the test on ACHN renal was more than 100 µM in each case. Also, the TGI with LOX IMVI melanoma, in the test on K-562 leukemia, with SNB-19 CNS and in the test with SW-620 colon was more than 100 µM in each case.
`OCCN(CCO)c1ccc2c(c1)Cc1ccccc1-2`: the TGI in the test on OVCAR-8 ovarian, with SF-268 CNS, in the test with HOP-62 NSCLC, with SK-MEL-28 melanoma, with ACHN renal and with LOX IMVI melanoma was more than 100 µM each time. The TGI in the test with K-562 leukemia, with SNB-19 CNS, with U251 CNS, in the test with SW-620 colon, with SF-295 CNS and in the test with KM12 colon was more than 100 µM in each case.
